Assay results published in patent publication US20210244712A1, “METHODS FOR TREATING PATIENTS WITH CANCER HAVING DEFECTS IN CYCLIN D REGULATION” (NysnoBio Ireland DAC, priority 2018, published 2021).

What was measured:
Experiment in all cases: Cell proliferation assay
Type in all cases: cell-based
SK-OV-3 = details: Homo sapiens, Table 7a, Ovarian (SKOV3)
Experimental: (§1) Measurement of the inhibitive effect of compounds on cancer cell proliferation was performed. The assays were performed under the following conditions: Cells are harvested at a concentration of 4×10^4 cells/ml in media. Volumes of 100 μL/well of these cell suspensions were added to a 96 well plate using a multichannel pipette. Plates were gently agitated to ensure an even dispersion of cells over a given plate. Cells were then incubated at 37° C., 5% CO2 overnight. Following this, 100 μL of compound at varying concentrations was added to wells in triplicate. Control wells are those with 100 μL media containing 0.33% DMSO added to cell suspension (this is the equivalent volume of DMSO found in the highest concentration of drug). Plates were then gently agitated, as above, and incubated at 37° C., 5% CO2 for 72 hrs (control wells have reached 80-90% confluency). Assessment of cell proliferation in the presence of Compounds C and F was determined by the acid phosphatase assay.
(§2) Following the incubation period of 72 hrs, media was removed from the plates. Each well on the plate was washed twice with 100 μL PBS. This was then removed and 100 μL of freshly prepared phosphatase substrate (10 mM p-nitrophenol phosphate in 0.1M sodium acetate, 0.1% triton X-100, pH 5.5) was added to each well. The plates were then incubated in the dark at 37° C. for 2 hours. Color development was monitored during this time. The enzymatic reaction was stopped by the addition of 50 μL of 1N NaOH. The plate was read in a dual beam plate reader at 405 nm with a reference wavelength of 620 nm. The absorbance reading of the latter is subtracted from the former, and the effect of the drug on cell proliferation was then measured as a percentage against the control cells (DMSO), which is taken as 0% inhibition.

Mino = details: Homo sapiens; Mantle Cell Mino; overexpression of Cyclin D
Experimental: as §1, §2

MDA-MB-157 = details: Homo sapiens, 72 hrs, read-out: Cell Viability: IC50
Experimental: as §1, §2

OVISE = details: 72 hrs, read-out: Cell Viability: IC50
Experimental: as §1, §2

SW527 = details: 72 hrs, read-out: Cell Viability: IC50
Experimental: as §1, §2

Caco-2 = details: Homo sapiens, 72 hrs, read-out: Cell Viability: IC50
Experimental: as §1, §2

MDA-MB-231 = details: Homo sapiens, 72 hrs, read-out: Cell Viability: IC50
Experimental: as §1, §2

NCl-H1395 = details: 72 hrs, read-out: Cell Viability: IC50
Experimental: as §1, §2

MSTO-211H = details: Homo sapiens, 72 hrs, read-out: Cell Viability: IC50
Experimental: as §1, §2

DLD-1 = details: Homo sapiens, 72 hrs, read-out: Cell Viability: IC50
Experimental: as §1, §2

Calu-1 = details: Homo sapiens, 72 hrs, read-out: Cell Viability: IC50
Experimental: as §1, §2

MDA-MB-453 = details: Homo sapiens, 72 hrs, read-out: Cell Viability: IC50
Experimental: as §1, §2

Calu-6 = details: Homo sapiens, 72 hrs, read-out: Cell Viability: IC50
Experimental: as §1, §2

JIMT-1 = details: Homo sapiens, 72 hrs, read-out: Cell Viability: IC50
Experimental: as §1, §2

NCl-H226 = details: 72 hrs, read-out: Cell Viability: IC50
Experimental: as §1, §2

KPL-1 = details: 72 hrs, read-out: Cell Viability: IC50
Experimental: as §1, §2

BT-474 = details: Homo sapiens, 72 hrs, read-out: Cell Viability: IC50
Experimental: as §1, §2

SW948 = details: Homo sapiens, 72 hrs, read-out: Cell Viability: IC50
Experimental: as §1, §2

OVTOKO = details: 72 hrs, read-out: Cell Viability: IC50
Experimental: as §1, §2

Hutu 80 = details: Homo sapiens, HuTu80, 72 hrs, read-out: Cell Viability: IC50
Experimental: as §1, §2

NC-H196 = details: 72 hrs, read-out: Cell Viability: IC50
Experimental: as §1, §2

ZR-75-1 = details: Homo sapiens, 72 hrs, read-out: Cell Viability: IC50
Experimental: as §1, §2

NCl-H292 = details: 72 hrs, read-out: Cell Viability: IC50
Experimental: as §1, §2

HCT-8 = details: Homo sapiens, 72 hrs, read-out: Cell Viability: IC50
Experimental: as §1, §2

OVSAHO = details: Homo sapiens, 72 hrs, read-out: Cell Viability: IC50
Experimental: as §1, §2

SW480 = details: Homo sapiens, 72 hrs, read-out: Cell Viability: IC50
Experimental: as §1, §2

MDA-MB-468 = details: Homo sapiens, 72 hrs, read-out: Cell Viability: IC50
Experimental: as §1, §2

LS174T = details: Homo sapiens, 72 hrs, read-out: Cell Viability: IC50
Experimental: as §1, §2

SK-CO-1 = details: Homo sapiens, 72 hrs, read-out: Cell Viability: IC50
Experimental: as §1, §2

HCC38 = details: Homo sapiens, 72 hrs, read-out: Cell Viability: IC50
Experimental: as §1, §2

HCC1954 = details: Homo sapiens, 72 hrs, read-out: Cell Viability: IC50
Experimental: as §1, §2

LOVO = details: Homo sapiens, 72 hrs, read-out: Cell Viability: IC50
Experimental: as §1, §2

MDA-MB-436 = details: Homo sapiens, 72 hrs, read-out: Cell Viability: IC50
Experimental: as §1, §2

HT-29 = details: Homo sapiens, 72 hrs, read-out: Cell Viability: IC50
Experimental: as §1, §2

SK-LU-1 = details: Homo sapiens, 72 hrs, read-out: Cell Viability: IC50
Experimental: as §1, §2

SK-BR-3 = details: Homo sapiens, 72 hrs, read-out: Cell Viability: IC50
Experimental: as §1, §2

NCl-H1703 = details: 72 hrs, read-out: Cell Viability: IC50
Experimental: as §1, §2

RKO = details: Homo sapiens, 72 hrs, read-out: Cell Viability: IC50
Experimental: as §1, §2

T-47D = details: Homo sapiens, T47D, 72 hrs, read-out: Cell Viability: IC50
Experimental: as §1, §2

Cc1ccccc1C(=O)Nc1nc(NC(=O)c2ccccc2C)n(-c2ccc(OC(F)(F)F)cc2)n1 [Compound 42, N,N′-(1-(4-(trifluoromethoxy)phenyl)-1H-1,2,4-triazole-3,5-diyl)bis(2-methylbenzamide)]
EC50 (SK-OV-3): 0.376 µM | IC50 (Mino): 0.345 µM

Cc1ccccc1C(=O)Nc1nc(NC(=O)c2ccccc2C)n(-c2ccccc2)n1 [Compound F, 2-methyl-N-[5-[(2-methylbenzoyl)amino]-1-phenyl-1,2,4-triazol-3-yl]benzamide]
IC50 (MDA-MB-157): 5.82 µM | IC50 (OVISE): 7.33 µM | IC50 (SW527): 6.69 µM | IC50 (Caco-2): > 10 µM | IC50 (MDA-MB-231): 6.98 µM | IC50 (NCl-H1395): 7.6 µM | IC50 (MSTO-211H): 2.31 µM | IC50 (DLD-1): 7.49 µM | IC50 (Calu-1): 43.3 µM | IC50 (MDA-MB-453): 3.04 µM | IC50 (Calu-6): 1.89 µM | IC50 (JIMT-1): 8.49 µM | IC50 (NCl-H226): 7.33 µM | IC50 (KPL-1): 3.86 µM | IC50 (BT-474): 3.03 µM | IC50 (SW948): 8.37 µM | IC50 (OVTOKO): > 10 µM | IC50 (Hutu 80): 1.63 µM | IC50 (NC-H196): 2.83 µM | IC50 (ZR-75-1): 3.87 µM | IC50 (NCl-H292): 0.95 µM | IC50 (HCT-8): 4.74 µM | IC50 (OVSAHO): 6.53 µM | IC50 (SW480): 3.49 µM | IC50 (MDA-MB-468): 3.18 µM | IC50 (LS174T): 2.37 µM | IC50 (SK-CO-1): 0.98 µM | IC50 (HCC38): 5.77 µM | IC50 (HCC1954): 3.69 µM | IC50 (LOVO): 5.64 µM | IC50 (MDA-MB-436): 6.55 µM | IC50 (HT-29): 2.96 µM | IC50 (SK-LU-1): 5.73 µM | IC50 (SK-BR-3): 3.05 µM | IC50 (NCl-H1703): 1.85 µM | IC50 (RKO): 4.12 µM | IC50 (T-47D): 7.37 µM
